# Assay results reported in patent US5663417A, “Carbocyclic sulfonamides” (Ono Pharmaceutical Co., Ltd., priority 1993, dated 1997).
# Biological target: prostaglandin E2 receptor
# Experiment: inhibition of [^3 H]-PGE2 receptor binding in rat uterus membrane fraction
# Conditions: Table I; 5 nM [^3 H]-PGE2, rat uterus crude membrane fraction, pH 6.0, 1 hour at room temperature; read-out: IC50, inhibitory effects of PGE2 receptor binding in rat
# Protocol: (i) The measurement of the inhibition of [^3 H]-PGE2 receptor binding
# The standard assay mixture contained 5 nM [^3 H]-PGE2 (50 μl), test compounds (50 μl) and crude membrane fraction obtained from rat uterus (1.2 mg protein/ml, 100 μl) in a final volume of 200 μl (10 mM potassium phosphate pH 6.0, 0.1M NaCl (buffer A)). After incubation for 1 hour at room temperature, the reaction was stopped by the addition of 3 ml of ice-cold buffer A, after which the mixture was rapidly filtered through a Whatman GF/B glass filter. The radioactivity associated with the filter was measured in ACS II (Amarsham) by liquid scintillation counting. Percent inhibition of specific [^3 H]-PGE2 binding or IC50 value, the concentration required to compete with ^3 H-PGE2 receptor binding by 50% were calculated.
row,Structure (SMILES),IC50 [nM]
1,Cc1ccc(S(=O)(=O)NCC2CCCC2/C=C\CCCC(=O)O)cc1 (stereo not drawn),8000
2,"Cc1ccc(S(=O)(=O)NC2C3CCC(C3)C2C/C=C\CCCC(=O)O)cc1 (racemic) [5 (b), a mixture of 7-[(1R,2S,3S, 4S)-3-tosylaminobicyclo[2.2.1]heptan-2-yl]-5Z-heptenoic acid and an isomer of (1S, 2S,3S,4R)]",3400
3,"Cc1ccc(S(=O)(=O)N[C@H]2C3CCC(CC3)[C@@H]2C/C=C\CCCC(=O)O)cc1 (relative stereo) [5 (a), 7-[(2S*,3S*)-3-tosylaminobicyclo[2.2.2]octan-2-yl]-5Z-heptenoic acid]",3600
4,"Cc1ccc(S(=O)(=O)N[C@H]2[C@H]3CC[C@H](C3)[C@@H]2C/C=C\CCCC(=O)O)cc1 (relative stereo) [5 (c), 7-[(1R*,2S*,3S*,4S*)-3-tosylaminobicyclo[2.2.1]heptan-2-yl]-5Z-heptenoic acid]",5700
5,"Cc1ccc(S(=O)(=O)N[C@H]2CCC[C@@H]2C/C=C\CCCC(=O)O)cc1 (relative stereo) [5 (g), 7-[(1R*,2S*)-2-tosylaminocyclopentyl-5Z-heptenoic acid]",3500
6,"CC1(C)[C@H]2C[C@H](NS(=O)(=O)c3ccccc3)[C@@H](C/C=C\CCCC(=O)O)[C@@H]1C2 [3 (a), 7-[(1S,2S,3S,5R)-3-phenylsulfonylamino-6,6-dimethylbicyclo[3.1.1]heptan-2-yl]-5Z-heptenoic]",7600
7,"CC(C)(C)c1ccc(S(=O)(=O)N[C@H]2C[C@H]3C[C@@H]([C@@H]2C/C=C\CCCC(=O)O)C3(C)C)cc1 [3 (c), 7-[(1S,2S,3S,5R)-3-(4-tert-butylphenyl)sulfonylamino-6,6-dimethylbicyclo[3.1.1]heptan-2-yl]-5Z-heptenoic acid]",6300
8,"CC1(C)[C@H]2C[C@H](NS(=O)(=O)c3ccc(F)cc3)[C@@H](C/C=C\CCCC(=O)O)[C@@H]1C2 [3 (e), 7-[(1S,2S,3S,5R)-3-(4-fluorophenyl)sulfonylamino-6,6-imethylbicyclo[3.1.1]heptan-2-yl]-5Z-heptenoic]",2600
9,"CCCCS(=O)(=O)N[C@H]1C[C@H]2C[C@@H]([C@@H]1C/C=C\CCCC(=O)O)C2(C)C [3 (j), 7-[(1S,2S,3S,5R)-3-butylsulfonylamino-6,6-dimethylbicyclo[3.1.1]heptan-2-yl]-5Z-heptenoic acid]",5000
10,"O=C(O)CCC/C=C\CC1CCCCC1NS(=O)(=O)c1ccc(Br)cc1 (stereo not drawn) [5 (f), 7-[2-(4-bromophenylsulfonylamino)cyclohexyl]-5Z-heptenoic acid]",5000
11,"O=C(O)CCCC=CC1C2CCC(C2)C1CNS(=O)(=O)c1ccc(Br)cc1 [5 (i), 6-[(1S,2S,3S,4R)-3-(4-bromophenylsulfonylaminomethyl)bicyclo[2.2.1]heptan-2-yl]-5Z-hexenoic acid]",6500
12,"Cc1ccc(S(=O)(=O)N[C@H]2[C@H]3CC[C@H](C3)[C@@H]2C/C=C\CCCC(=O)O)cc1 [Example 4, 7-[(1R,2S,3S,4S)-3-tosylaminobicyclo[2.2.1]heptan-2-yl]-5Z-heptenoic acid]",3400

# More lines, now with the values ahead:
row,IC50 [nM],Structure (SMILES)
1,2400,O=C(O)CCC/C=C\[C@@H]1CCC[C@@H](NS(=O)(=O)c2ccc(Br)cc2)C1 (relative stereo) [U.S. Pat. No. 5168101 1 (l)]
2,2100,"Cc1ccc(S(=O)(=O)N[C@H]2C3CCC(CC3)[C@@H]2C/C=C\CCCC(=O)O)cc1 [5 (d), 7-[(2S,3S)-3-tosylaminobicyclo[2.2.2]octan-2-yl]-5Z-heptenoic acid]"
3,1800,O=C(O)CCC/C=C\C1CCCC1CNS(=O)(=O)c1ccc(Br)cc1 (stereo not drawn)
4,820,"COc1ccc(S(=O)(=O)N[C@H]2C[C@H]3C[C@@H]([C@@H]2C/C=C\CCCC(=O)O)C3(C)C)cc1 [3 (d), 7-[(1S,2S,3S,5R)-3-(4-methoxyphenyl)sulfonylamino-6,6-dimethylbicyclo[3.1.1]heptan-2-yl]-5Z-heptenoic acid]"
5,750,"CC1(C)[C@H]2C[C@H](NS(=O)(=O)c3ccc(Cl)cc3)[C@@H](C/C=C\CCCC(=O)O)[C@@H]1C2 [3 (f), 7-[(1S,2S,3S,5R)-3-(4-chlorophenyl)sulfonylamino-6,6-imethylbicyclo[3.1.1]heptan-2-yl]-5Z-heptenoic]"
6,570,"CCc1ccc(S(=O)(=O)N[C@H]2C[C@H]3C[C@@H]([C@@H]2C/C=C\CCCC(=O)O)C3(C)C)cc1 [3 (b), 7-[(1S,2S,3S,5R)-3-(4-ethylphenyl)sulfonylamino-6,6-dimethylbicyclo[3.1.1]heptan-2-yl]-5Z-heptenoic]"
7,500,O=C(O)CCC/C=C\[C@@H]1CCC[C@H](NS(=O)(=O)c2ccc(Br)cc2)C1 (relative stereo) [U.S. Pat. No. 5168101 1 (m)]
8,440,"CC1(C)[C@H]2C[C@H](NS(=O)(=O)c3ccc(Br)cc3)[C@@H](C/C=C\CCCC(=O)O)[C@@H]1C2 [Example 2, 7-[(1S,2S,3S,5R)-3-(4-bromophenyl)sulfonylamino-6,6-dimethylbicyclo [3.1.1]heptan-2-yl]-5Z-heptenoic acid]"
9,360,"CCCCCCCCS(=O)(=O)N[C@H]1C[C@H]2C[C@@H]([C@@H]1C/C=C\CCCC(=O)O)C2(C)C [3 (l), 7-[(1S,2S,3S,5R)-3-octylsulfonylamino-6,6-dimethylbicyclo[3.1.1]heptan-2-yl]-5Z-heptenoic acid]"
10,210,"CC1(C)[C@H]2C[C@H](NS(=O)(=O)c3ccc([N+](=O)[O-])cc3)[C@@H](C/C=C\CCCC(=O)O)[C@@H]1C2 [3 (h), 7-[(1S,2S,3S,5R)-3-(4-nitrophenyl)sulfonylamino-6,6-dimethylbicyclo[3.1.1]heptan-2-yl]-5Z-heptenoic]"
11,200,"O=C(O)CCC/C=C\C[C@H]1CCC[C@@H]1NS(=O)(=O)c1ccc(Br)cc1 (relative stereo) [5 (h), 7-[(1R*,2S*)-2-(4-bromophenylsulfonylamino)cyclopentyl]-5Z-heptenoic acid]"
12,120,"CC1(C)[C@H]2C[C@H](NS(=O)(=O)CCC3CCCCC3)[C@@H](C/C=C\CCCC(=O)O)[C@@H]1C2 [3 (n), 7-[(1S,2S,3S,5R)-3-(2-cyclohexylethyl)sulfonylamino-6,6-dimethylbicyclo[3.1.1]heptan-2-yl]-5Z-heptenoic acid]"
13,90,"CC1(C)[C@H]2C[C@H](NS(=O)(=O)c3ccc4ccccc4c3)[C@@H](C/C=C\CCCC(=O)O)[C@@H]1C2 [3 (i), 7-[(1S,2S,3S,5R)-3-(2-naphtyl)sulfonylamino-6,6-dimethylbicyclo[3.1.1]heptan-2-yl]-5Z-heptenoic]"
14,60,"O=C(O)CCC/C=C\CC1CCCCC1NS(=O)(=O)c1ccc(Br)cc1 (stereo not drawn) [5 (e), 7-[2-(4-bromophenylsulfonylamino)cyclohexyl]-5Z-heptenoic acid]"
15,54,"CC1(C)[C@H]2C[C@H](NS(=O)(=O)c3ccc(I)cc3)[C@@H](C/C=C\CCCC(=O)O)[C@@H]1C2 [3 (g), 7-[(1S,2S,3S,5R)-3-(4-iodophenyl)sulfonylamino-6,6-dimethylbicyclo[3.1.1]heptan-2-yl]-5Z-heptenoic]"
16,25,"CCCCCCS(=O)(=O)N[C@H]1C[C@H]2C[C@@H]([C@@H]1C/C=C\CCCC(=O)O)C2(C)C [3 (k), 7-[(1S,2S,3S,5R)-3-hexylsulfonylamino-6,6-dimethylbicyclo[3.1.1]heptan-2-yl]-5Z-heptenoic acid]"
17,5.4,"CC1(C)[C@H]2C[C@H](NS(=O)(=O)CCc3ccccc3)[C@@H](C/C=C\CCCC(=O)O)[C@@H]1C2 [3 (m), 7-[(1S,2S,3S,5R)-3-(2-phenylethyl)sulfonylamino-6,6-dimethylbicyclo[3.1.1]heptan-2-yl]-5Z-heptenoic acid]"

# Same assay, conditions: Table II; 5 nM [^3 H]-PGE2, rat uterus crude membrane fraction, pH 6.0, 1 hour at room temperature; read-out: IC50, inhibitory effects of PGE2 receptor binding in rat
row,IC50 [nM],Structure (SMILES)
1,230,"O=C(O)CCC/C=C\C[C@H]1CCCC[C@@H]1NS(=O)(=O)/C=C/c1ccccc1 (relative stereo) [6 (19), 7-[(1R*, 2S*)-2-(2-phenylvinylsulfonylamino)cyclohexyl]-5Z-heptenoic]"
2,600,"O=C(O)CCC/C=C\[C@@H]1CCC[C@@H](NS(=O)(=O)/C=C/c2ccccc2)C1 (relative stereo) [6 (21), 6-[(1R*, 3R*)-3-(2-phenylvinylsulfonylamino)cyclohexyl]-5Z-hexenoic]"
3,3.6,"CC1(C)[C@H]2C[C@H](NS(=O)(=O)/C=C/c3ccc(F)cc3)[C@@H](C/C=C\CCCC(=O)O)[C@@H]1C2 [6 (2), 7-[(1S, 2S, 3S, 5R)-3-[2-(4-fluorophenyl)vinylsulfonylamino]-6,6-dimethylbicyclo[3.1.1]heptan-2-yl]-5Z-heptenoic acid]"
4,800,CCCC/C=C/S(=O)(=O)N[C@H]1C[C@H]2C[C@@H]([C@@H]1C/C=C\CCCC(=O)O)C2(C)C [6 (14)]
5,17,"O=C(O)CCC/C=C\[C@@H]1[C@H]2CC[C@H](C2)[C@H]1CNS(=O)(=O)/C=C/c1ccccc1 [6 (18), 6-[(1S, 2S, 3R, 4R)-3-(2-phenylvinylsulfonylaminomethyl)bicyclo[2.2.1]heptan-2-yl]-5Z-hexenoic acid]"
6,1800,"O=C(O)CCC/C=C\[C@H]1CC[C@@H](NS(=O)(=O)/C=C/c2ccccc2)C1 [6 (22), 6-[(1S, 3R)-3-(2-phenylvinylsulfonyl-amino)cyclopentyl]-5Z-hexenoic]"
7,38,"CC1(C)[C@H]2C[C@H](NS(=O)(=O)/C=C/c3ccccc3)[C@@H](C/C=C/CCCC(=O)O)[C@@H]1C2 [6 (26), 7-[(1S, 2S, 3S, 5R)-3-(2-phenylvinylsulfonylamino)-6,6-dimethylbicyclo [3.1.1]heptan-2-yl]-5E-heptenoic acid]"
